Reference: patent publication US9265773B2, “Tetracyclic heterocycle compounds and methods of use thereof for the treatment of viral diseases” (priority 2011, dated 2016)

Assays:
HCV replicon genotype 1a = experiment: microbe, parasite or virus in culture; assay type: cell-based; settings: Hepatitis C virus, 96 h, genotype 1a replicon cells, incubated 96 hours, NS3/4A ELISA readout
HCV replicon genotype 1b = experiment: microbe, parasite or virus in culture; assay type: cell-based; settings: Hepatitis C virus, 96 h, genotype 1b replicon cells, incubated 96 hours, NS3/4A ELISA readout

Row | Compound | IC50 (HCV replicon genotype 1a) [nM] | IC50 (HCV replicon genotype 1b) [nM]
1 | CNC(=O)c1c(-c2ccc(F)cc2)oc2cc(N(CCF)S(C)(=O)=O)c(-c3ncc4c(n3)-c3cc5c(F)cccc5n3CO4)cc12 [Compound 193] | 1.3 | 1.7
2 | CNC(=O)c1c(-c2ccc(F)cc2)oc2cc(N(C)S(C)(=O)=O)c(-c3nc4c(cc3OC)OCn3c-4cc4c(F)cccc43)cc12 [Compound 36] | 1.7 | 7.1
3 | CNC(=O)c1c(-c2ccc(F)cc2)oc2cc(N(C)S(C)(=O)=O)c(-c3ccc4c(n3)-c3cc5ccc(Cl)cc5n3CO4)cc12 [Compound 15] | 9.1 | 9.9
4 | CNC(=O)c1c(-c2ccc(F)cc2)oc2cc(N3CCOC3=O)c(-c3ncc4c(n3)-c3cc5c(F)cccc5n3CO4)cc12 [Compound 173, 5-(11-fluoro-6H-pyrimido[4′,3′:5,6][1,3]oxazino[3,4-a]indol-2-yl)-2-(4-fluorophenyl)-N-methyl-6-(2-oxooxazolidin-3-yl)benzofuran-3-carboxamide] | 8.4 | 2.1
5 | CNC(=O)c1c(-c2ccc(F)cc2)oc2cc(N(CC(F)F)S(C)(=O)=O)c(-c3ncc4c(n3)-c3cc5ccccc5n3CO4)cc12 [Compound 198] | 2 | 5.6
6 | CN(c1cc2oc(-c3ccc(F)cc3)c(C(N)=O)c2cc1-c1ccc2c(n1)-c1cc3c(F)cccc3n1CO2)S(C)(=O)=O [Compound 154] | 2.7 | 2.2
7 | CNC(=O)c1c(-c2ccc(F)cc2)oc2cc(N(C)S(C)(=O)=O)c(-c3ccc4c(n3)-c3cc5c(F)cccc5n3C(CO)(CO)O4)cc12 [Compound 94] | 2.3 | 5.6
8 | CNC(=O)c1c(-c2ccc(F)cc2)oc2cc(-c3ccoc3)c(-c3ccc4c(n3)-c3cc5c(F)cccc5n3CO4)cc12 [Compound 167] | 21 | 17
9 | CNC(=O)c1c(-c2ccc(F)cc2)oc2cc(N(C)S(C)(=O)=O)c(-c3cc4c(cn3)OCn3c-4cc4ccccc43)cc12 [Compound 11] | 2.1 | 1.8
10 | CNC(=O)c1c(-c2ccc(F)cc2)oc2cc(N(C)S(C)(=O)=O)c(-c3ncc4c(n3)-c3cc5ccccc5n3CCO4)cc12 [Compound 7] | 2.4 | 1.6
11 | CNC(=O)c1c(-c2ccc(F)cc2)oc2cc(N(CC(F)F)S(C)(=O)=O)c(-c3ccc4c(n3)-c3cc5ccccc5n3CO4)cc12 [Compound 185] | 7.9 | 16
12 | CNC(=O)c1c(-c2ccc(F)cc2)oc2cc(N(C)S(C)(=O)=O)c(-c3ccc4c(n3)-c3cc5c(F)cccc5n3CO4)cc12 [Compound 2, 5-(11-fluoro-6H-pyrido[2′,3′:5,6][1,3]oxazino[3,4-a]indol-2-yl)-2-(4-fluorophenyl)-N-methyl-6-(N-methylmethylsulfonamido)benzofuran-3-carboxamide] | 1.6 | 2.7
13 | CNC(=O)c1c(-c2ccc(F)cc2)oc2cc(N(C)S(C)(=O)=O)c(-c3ccc4c(n3)-c3c(C#N)c5ccccc5n3CO4)cc12 [Compound 60, 5-(12-cyano-6H-pyrido[2′,3′:5,6][1,3]oxazino[3,4-a]indol-2-yl)-2-(4-fluorophenyl)-N-methyl-6-(N-methylmethylsulfonamido)benzofuran-3-carboxamide] | 69 | 31
